Test results: ChEMBL document CHEMBL3351732, “Potent bisimidazole-based HCV NS5A inhibitors bearing annulated tricyclic motifs” (Bioorg Med Chem Lett, 2014)
pEC50: −log10 of the molar value.

How the values were obtained:
[1] = Oral bioavailability in Sprague-Dawley rat at 5 mg/kg; assay type: ADME, organism-based; details: in vivo
[2] = Volume of distribution at steady state in Sprague-Dawley rat at 1 mg/kg, iv; assay type: ADME, organism-based; parameters: dose 1 mg/kg, route intravenous; details: in vivo, read-out: Vdss
[3] = Drug level in Sprague-Dawley rat liver at 5 mg/kg, po measured 4 hrs post dose; assay type: ADME, organism-based; parameters: dose 5 mg/kg, route oral; details: read-out: Drug uptake
[4] = Cmax in Sprague-Dawley rat at 5 mg/kg, po; assay type: ADME, organism-based; parameters: dose 5 mg/kg, route oral; details: in vivo
[5] = Half life in Sprague-Dawley rat at 1 mg/kg, iv; assay type: ADME, organism-based; parameters: dose 1 mg/kg, route intravenous; details: in vivo
[6] = AUC(last) in Sprague-Dawley rat at 5 mg/kg, po; assay type: ADME, organism-based; parameters: dose 5 mg/kg, route oral, time 0 - last; details: plasma
Hepatitis C virus [7] = assay: Antiviral activity against HCV genotype 3a infected in human HuH7 cells by luciferase reporter gene assay; assay type: functional, cell-based, Hepacivirus hominis; details: Huh-7
[8] = Plasma concentration in Sprague-Dawley rat at 5 mg/kg, po measured 4 hrs post dose; assay type: ADME, organism-based; parameters: dose 5 mg/kg, route oral
Rattus norvegicus [9] = assay: (§1) Clearance in Sprague-Dawley rat at 1 mg/kg, iv; assay type: ADME, organism-based; parameters: dose 1 mg/kg, route intravenous; details: in vivo
[10] = Tmax in Sprague-Dawley rat at 5 mg/kg, po; assay type: ADME, organism-based; parameters: dose 5 mg/kg, route oral; details: in vivo
Hepatitis C virus [11] = assay: Antiviral activity against HCV genotype 1a infected in human HuH7 cells by luciferase reporter gene assay; assay type: functional, cell-based, Hepacivirus hominis; details: subtype 1a, Huh-7
Hepatitis C virus [12] = assay: Antiviral activity against HCV genotype 1b infected in human HuH7 cells by luciferase reporter gene assay; assay type: functional, cell-based, Hepacivirus hominis; details: Huh-7
Rattus norvegicus [13] = assay: (§2) AUC(last) in Sprague-Dawley rat at 1 mg/kg, iv; assay type: ADME, organism-based, Plasma; parameters: time 0 - last, dose 1 mg/kg, route intravenous; details: in vivo
Hepatitis C virus [14] = assay: Antiviral activity against HCV genotype 6a infected in human HuH7 cells by luciferase reporter gene assay; assay type: functional, cell-based, Hepacivirus hominis; details: Huh-7
Hepatitis C virus [15] = assay: Antiviral activity against HCV genotype 4a infected in human HuH7 cells by luciferase reporter gene assay; assay type: functional, cell-based, Hepacivirus hominis; details: Huh-7
Hepatitis C virus [16] = assay: Antiviral activity against HCV genotype 5a infected in human HuH7 cells by luciferase reporter gene assay; assay type: functional, cell-based, Hepacivirus hominis; details: Huh-7
[17] = as §1; assay type: ADME, organism-based; parameters: dose 1 mg/kg, route intravenous; details: Sprague-Dawley, in vivo
[18] = as §2; assay type: ADME, organism-based, Plasma; parameters: time 0 - last, dose 1 mg/kg, route intravenous; details: Sprague-Dawley, plasma

Structure (SMILES)	pEC50 (Hepatitis C virus [11])	pEC50 (Hepatitis C virus [12])	further results
COC(=O)N[C@H](C(=O)N1CCC[C@H]1c1ncc(-c2ccc3oc4cc(-c5cnc([C@@H]6CCCN6C(=O)[C@@H](NC(=O)OC)C(C)C)[nH]5)c(C)cc4c(=O)c3c2)[nH]1)C(C)C	8.47	10.26	–
COC(=O)N[C@H](C(=O)N1CCC[C@H]1c1ncc(-c2ccc3c(c2)C(C)(C)c2cc(-c4cnc([C@@H]5CCCN5C(=O)[C@@H](NC(=O)OC)C(C)C)[nH]4)ccc2-3)[nH]1)C(C)C	8.94	10.43	–
COC(=O)N[C@H](C(=O)N1CCC[C@H]1c1ncc(-c2ccc3c(c2)Cc2cc(-c4cnc([C@@H]5CCCN5C(=O)[C@@H](NC(=O)OC)C(C)C)[nH]4)ccc2O3)[nH]1)C(C)C	< 7.00	< 8.43	–
COC(=O)N[C@H](C(=O)N1CCC[C@H]1c1ncc(-c2ccc3c(c2)[nH]c2cc(-c4cnc([C@@H]5CCCN5C(=O)[C@@H](NC(=O)OC)C(C)C)[nH]4)ccc23)[nH]1)C(C)C	7.78	9.74	–
COC(=O)N[C@H](C(=O)N1CCC[C@H]1c1ncc(-c2ccc3oc4cc(-c5cnc([C@@H]6CCCN6C(=O)[C@@H](NC(=O)OC)C(C)C)[nH]5)c(F)cc4c(=O)c3c2)[nH]1)C(C)C	9.22	10.52	–
COC(=O)N[C@H](C(=O)N1CCC[C@H]1c1ncc(-c2ccc3c(c2)Oc2ccc(-c4cnc([C@@H]5CCCN5C(=O)[C@@H](NC(=O)OC)C(C)C)[nH]4)cc2C(=O)N3)[nH]1)C(C)C	< 7.00	< 8.43	–
COC(=O)N[C@H](C(=O)N1CCC[C@H]1c1ncc(-c2ccc3c(c2)CCc2cc(-c4cnc([C@@H]5CCCN5C(=O)[C@@H](NC(=O)OC)C(C)C)[nH]4)ccc2O3)[nH]1)C(C)C	8.32	10.16	–
COC(=O)N[C@H](C(=O)N1CCC[C@H]1c1ncc(-c2ccc3c(c2)c(=O)c2ccc(-c4cnc([C@@H]5CCCN5C(=O)[C@@H](NC(=O)OC)C(C)C)[nH]4)cc2n3C)[nH]1)C(C)C	7.95	10.55	–
COC(=O)N[C@H](C(=O)N1CCC[C@H]1c1ncc(-c2ccc3c(c2)CCc2ccc(-c4cnc([C@@H]5CCCN5C(=O)[C@@H](NC(=O)OC)C(C)C)[nH]4)cc2O3)[nH]1)C(C)C	8.13	10.26	–
COC(=O)N[C@H](C(=O)N1CCC[C@H]1c1ncc(-c2ccc3c4ccc(-c5cnc([C@@H]6CCCN6C(=O)[C@@H](NC(=O)OC)C(C)C)[nH]5)cc4n(C)c3c2)[nH]1)C(C)C	8.11	9.77	–
COC(=O)N[C@H](C(=O)N1CCC[C@H]1c1ncc(-c2ccc3c(c2)C(=O)c2cc(-c4cnc([C@@H]5CCCN5C(=O)[C@@H](NC(=O)OC)C(C)C)[nH]4)ccc2-3)[nH]1)C(C)C	9.35	10.35	–
COC(=O)N[C@H](C(=O)N1CCC[C@H]1c1ncc(-c2ccc3c(c2)oc2cc(-c4cnc([C@@H]5CCCN5C(=O)[C@@H](NC(=O)OC)C(C)C)[nH]4)ccc23)[nH]1)C(C)C	9.40	10.39	pEC50 (Hepatitis C virus [7]): 8.89
COC(=O)N[C@H](C(=O)N1CCC[C@H]1c1ncc(-c2ccc3c(c2)-c2ccc(-c4cnc([C@@H]5CCCN5C(=O)[C@@H](NC(=O)OC)C(C)C)[nH]4)cc2-3)[nH]1)C(C)C	8.52	9.26	–
COC(=O)N[C@H](C(=O)N1CCC[C@H]1c1ncc(-c2ccc3c(c2)oc2ccc(-c4cnc([C@@H]5CCCN5C(=O)[C@@H](NC(=O)OC)C(C)C)[nH]4)cc23)[nH]1)C(C)C	8.74	10.48	–
COC(=O)N[C@H](C(=O)N1CCC[C@H]1c1ncc(-c2ccc3c(c2)Oc2ccc(-c4cnc([C@@H]5CCCN5C(=O)[C@@H](NC(=O)OC)C(C)C)[nH]4)cc2O3)[nH]1)C(C)C	10.36	10.64	bioavailability [1]: 20.1%; Vd [2]: 1.18 L/kg; concentration at 4 h [3]: 973 ng/mL; Cmax [4]: 339 ng/mL; half-life [5]: 2.53 h; AUC(0-t) [6]: 1470 ng·h/mL; pEC50 (Hepatitis C virus [7]): 10.22; concentration at 4 h [8]: 199 ng/mL; clearance [17]: 11.2 mL/min/kg; Tmax [10]: 1.33 h; AUC(0-t) [18]: 2570 ng·h/mL
COC(=O)N[C@H](C(=O)N1CCC[C@H]1c1ncc(-c2ccc3c(c2)Oc2ccc(-c4cnc([C@@H]5CCCN5C(=O)[C@@H](NC(=O)OC)C(C)C)[nH]4)cc2C32CC2)[nH]1)C(C)C	10.19	10.70	–
COC(=O)N[C@H](C(=O)N1CCC[C@H]1c1ncc(-c2ccc3oc4cc(-c5cnc([C@@H]6CCCN6C(=O)[C@@H](NC(=O)OC)C(C)C)[nH]5)c(Cl)cc4c(=O)c3c2)[nH]1)C(C)C	8.60	10.54	–

Continued, in another order:

pEC50 (Hepatitis C virus [11])	pEC50 (Hepatitis C virus [12])	Structure (SMILES)	further results
9.76	10.55	COC(=O)N[C@H](C(=O)N1CCC[C@H]1c1ncc(-c2ccc3c(=O)c4cc(-c5cnc([C@@H]6CCCN6C(=O)[C@@H](NC(=O)OC)C(C)C)[nH]5)ccc4oc3c2)[nH]1)C(C)C	bioavailability [1]: 6.7%; Vd [2]: 3.57 L/kg; concentration at 4 h [3]: 25 ng/mL; Cmax [4]: 96.5 ng/mL; half-life [5]: 0.92 h; AUC(0-t) [6]: 197 ng·h/mL; pEC50 (Hepatitis C virus [7]): 8.85; concentration at 4 h [8]: 14 ng/mL; CL (Rattus norvegicus [9]): 55 mL/min/kg; Tmax [10]: 0.5 h; AUClast (Rattus norvegicus [13]): 626 ng·h/mL
9.85	10.14	COC(=O)N[C@H](C(=O)N1CCC[C@H]1c1ncc(-c2ccc(-c3ccc(-c4cnc([C@@H]5CCCN5C(=O)[C@@H](NC(=O)OC)C(C)C)[nH]4)cc3)cc2)[nH]1)C(C)C [DACLATASVIR]	pEC50 (Hepatitis C virus [14]): 9.35; pEC50 (Hepatitis C virus [15]): 10.39; pEC50 (Hepatitis C virus [7]): 9.17; pEC50 (Hepatitis C virus [16]): 10.29
10.01	10.89	COC(=O)N[C@H](C(=O)N1CCC[C@H]1c1ncc(-c2ccc3c(c2)Cc2ccc(-c4cnc([C@@H]5CCCN5C(=O)[C@@H](NC(=O)OC)C(C)C)[nH]4)cc2O3)[nH]1)C(C)C	bioavailability [1]: 41.1%; Vd [2]: 1.32 L/kg; concentration at 4 h [3]: 462 ng/mL; Cmax [4]: 380 ng/mL; half-life [5]: 1.33 h; AUC(0-t) [6]: 2090 ng·h/mL; concentration at 4 h [8]: 371 ng/mL; clearance [17]: 15.8 mL/min/kg; Tmax [10]: 3.33 h; AUC(0-t) [18]: 1060 ng·h/mL
8.05	9.77	COC(=O)N[C@H](C(=O)N1CCC[C@H]1c1ncc(-c2ccc3oc4ccc(-c5cnc([C@@H]6CCCN6C(=O)[C@@H](NC(=O)OC)C(C)C)[nH]5)cc4c3c2)[nH]1)C(C)C	–
9.60	10.38	COC(=O)N[C@H](C(=O)N1CCC[C@H]1c1ncc(-c2ccc3c(c2)Cc2cc(-c4cnc([C@@H]5CCCN5C(=O)[C@@H](NC(=O)OC)C(C)C)[nH]4)ccc2-3)[nH]1)C(C)C	pEC50 (Hepatitis C virus [7]): 8.42
10.06	10.43	COC(=O)N[C@H](C(=O)N1CCC[C@H]1c1ncc(-c2ccc3nc4cc(-c5cnc([C@@H]6CCCN6C(=O)[C@@H](NC(=O)OC)C(C)C)[nH]5)ccc4nc3c2)[nH]1)C(C)C	–
8.70	9.89	COC(=O)N[C@H](C(=O)N1CCC[C@H]1c1ncc(-c2ccc3c(c2)S(=O)(=O)c2cc(-c4cnc([C@@H]5CCCN5C(=O)[C@@H](NC(=O)OC)C(C)C)[nH]4)ccc2-3)[nH]1)C(C)C	–
